We go through 12 compounds from ChEMBL document CHEMBL1130730, “Immunomodulatory activity of thunberginol A and related compounds isolated from Hydrangeae Dulcis Folium on splenocyte proliferation activated by mitogens” (Bioorg Med Chem Lett, 1998).

The source made the active and inactive calls. The calls are words filed in the database; no cut-off is given here.

Experiment [1] is filed under the species Mus musculus. In words: Tested for inhibitory activity against B lymphocyte proliferation induced by LPS at 10e-5 M; significantly potentiated the proliferation. In kind it is functional.
Experiment [2] is filed under the species Mus musculus. Put plainly: Tested for inhibitory activity against T lymphocyte proliferation induced by Con A at 10e-5 M; slightly suppressed the proliferation. In kind it is functional.
The species entered for experiment [3] is Mus musculus. Put plainly: Tested for inhibitory activity against T lymphocyte proliferation induced by PHA; showed no suppressive effect. In kind it is functional.
For experiment [4], the species on record is Mus musculus. In words: Tested for inhibitory activity against B lymphocyte proliferation induced by LPS at 10e-7 M; suppressed the proliferation. In kind it is functional.
The species named for experiment [5] is Mus musculus. In words: Tested for inhibitory activity against T lymphocyte proliferation induced by PHA at 10e-7 M; showed potent suppressive effect. In kind it is functional.
Experiment [6] is filed under the species Mus musculus. In words: Tested for inhibitory activity against T lymphocyte proliferation induced by Con A at 10e-7 M; showed potent suppressive effect. In kind it is functional.
Experiment [7] relates to Rattus norvegicus. In words: Tested for in vivo inhibitory activity against passive cutaneous anaphylaxis (PCA) reaction in rats; showed inhibition. In kind it is functional, organism-based.
The species entered for experiment [8] is Mus musculus. In words: Tested for inhibitory activity against B lymphocyte proliferation induced by LPS at 10e-5 M; significantly suppressed the proliferation. In kind it is functional.
Experiment [9] deals with Mus musculus. In words: Tested for inhibitory activity against contact ear dermatitis in mice induced by dinitrofluorobenzene by consecutive oral administration in the primary sensitizing phase; showed inhibition. In kind it is functional, organism-based.
Experiment [10] relates to Rattus norvegicus. Put plainly: Tested for in vivo inhibitory activity against asthmatic bronchoconstriction in rats induced by antigen-antibody reaction; showed inhibition. In kind it is functional, organism-based.
Experiment [11] concerns Mus musculus. Put plainly: Tested for inhibitory activity against hind paw edema sensitized with sheep red blood cells (SRBC) in both sensitizing and inflammatory phases after oral administration; showed reduction.
Experiment [12] has as its system Rattus norvegicus. Put plainly: Tested for […] inhibitory activity against type 1 allergic reactions after oral administration; showed inhibition. In kind it is functional, organism-based.
The species entered for experiment [13] is Mus musculus. In words: Tested for inhibitory activity against T lymphocyte proliferation induced by Con A at 10e-6 to 10e-5 M; significantly suppressed the proliferation. In kind it is functional.

With `COc1ccc([C@H]2Cc3cc(O)cc(O)c3C(=O)O2)cc1O`, the Activity entry in the experiment filed under Mus musculus [1] and in the experiment listed under Mus musculus [2] was “significantly potentiated the proliferation” each time.

With `O=C1O/C(=C\c2ccc(O)c(O)c2)c2cccc(O)c21`, the Activity entry in the experiment listed under Mus musculus [1] and in the experiment listed under Mus musculus [3] was “no suppressive effect” each time.

`O=c1oc(-c2ccc(O)cc2)cc2cccc(O)c12`: the Activity result in the experiment filed under Mus musculus [1] and in the experiment filed under Mus musculus [3] was “no suppressive effect” throughout.

Turning to `O=C1OC(c2ccc(O)cc2)Cc2cc(O)cc(O)c21` (stereo not drawn), the Activity entry in the experiment listed under Mus musculus [1], in the experiment filed under Mus musculus [2] and in the experiment listed under Mus musculus [3] was “no suppressive effect” in each case.

As to `O=C1OC(c2ccc(O)cc2)Cc2cccc(O)c21` (stereo not drawn), the Activity result in the experiment filed under Mus musculus [1] and in the experiment listed under Mus musculus [3] was “no suppressive effect” throughout.

For the compound `COc1ccc([C@H]2Cc3cccc(O)c3C(=O)O2)cc1O`, the Activity entry in the experiment listed under Mus musculus [1] and in the experiment listed under Mus musculus [2] was “significantly potentiated the proliferation” in each case.

`O=C(O)c1c(O)cccc1/C=C/c1ccc(O)c(O)c1`: the Activity entry in the experiment listed under Mus musculus [1] and in the experiment filed under Mus musculus [3] was “no suppressive effect” throughout.

With `O=c1oc(-c2ccc(O)c(O)c2)cc2cc(O)cc(O)c12`, the Activity result in the experiment filed under Mus musculus [1] and in the experiment filed under Mus musculus [3] was “no suppressive effect” each time.

Consider `O=C1OC(c2ccc(O)c(O)c2)Cc2cc(O)cc(O)c21` (stereo not drawn), for which the Activity result in the experiment listed under Mus musculus [1], in the experiment listed under Mus musculus [2] and in the experiment filed under Mus musculus [3] was “no suppressive effect” each time.

Take `O=C1OC(c2ccc(O)c(O)c2)Cc2cccc(O)c21` (stereo not drawn): the Activity result in the experiment filed under Mus musculus [1], in the experiment listed under Mus musculus [2] and in the experiment filed under Mus musculus [3] was “no suppressive effect” throughout.

Regarding `C[C@]12CCC(=O)C=C1CCC1[C@@H]2[C@@H](O)C[C@@]2(C)[C@H]1CC[C@]2(O)C(=O)CO` (single isomer, unassigned), the result in the experiment listed under Mus musculus [4], in the experiment listed under Mus musculus [5] and in the experiment filed under Mus musculus [6] was Active.

As to `O=c1oc(-c2ccc(O)c(O)c2)cc2cccc(O)c12`, the Activity result in the experiment with Rattus norvegicus [7], in the experiment listed under Mus musculus [8], in the experiment on Mus musculus [9], with Rattus norvegicus [10], in the experiment on Mus musculus [11] and with Rattus norvegicus [12] was “inhibition” each time. For the same compound, the Activity result in the experiment listed under Mus musculus [13] is reported as “inhibition”.
